Assay results taken from patent publication US20090320166A1, “Synergistic Insecticide And Fungicidal Mixtures” (BAYER CROPSCIENCE AG, priority 2006, published 2009).

How the values were obtained:
Phaedon cochleariae = Phaedon cochleariae larvae test (cabbage leaf dip); conditions: Table B1, 200 ppm, mustard beetle larvae on cabbage leaves
Myzus persicae = Myzus persicae test (cabbage leaf dip); type: in vivo; conditions: 200 ppm
Source text: Solvent: 7 parts by weight of dimethylformamide

Cn1cc(C(=O)Nc2ccccc2C2CC2C2CC2)c(C(F)F)n1 (stereo not drawn) [compound (I-4)]
0%: Kill in % after 6d (Phaedon cochleariae) | Kill in % after 1d (Myzus persicae; Table A1, green peach aphid on cabbage leaves, after 1 d) | Kill in % after 6d (Myzus persicae; Table A2, after 6 d)
